Experiment: Respiratory rate (vital signs)
Conditions: 60 mg
Experimental: The Investigational Medicinal Product (IMP) R(−)-ketamine hydrochloride in sterile water for intravenous injection was investigated as an […] treatment of TRD. The International Union of Pure and Applied Chemistry (IUPAC) name is of the IMP is (2R)-2-(2-chlorophenyl)-2-(methylamino)cyclohexan-1-one. Subjects received the solution at either 30 mg or 60 mg dose, or a placebo. The IMP or placebo was administered on Day 1 as a single IV infusion via an electronic infusion pump over 40 minutes. The duration of study participation for each subject was up to 29 days including a screening period, a 3-day in-clinic visit, and 2 follow-up visits. 101 subjects were enrolled in approximately 20 study centers in the EU and the US.
Tympanic or temporal temperature, heart rate, blood pressure (SBP/DBP), respiratory rate, and SpO2 were assessed. Blood pressure and pulse measurements will be assessed with a completely automated device while the subject is supine or semi-supine. Manual techniques will be used only if an automated device is not available. Blood pressure and pulse measurements should be preceded by at least 5 minutes of rest for the subject in a quiet setting without distractions (e.g., television, cell phones). An abnormal blood pressure value at screening may be repeated once after 5 minutes of relaxation to determine the subject's eligibility. Blood pressure was recorded using the same arm and position (supine or semi-supine) throughout the study, where possible. Vital signs (to be taken before blood collection for laboratory tests) consisted of 1 pulse and 3 blood pressure measurements (3 consecutive blood pressure readings will be recorded at intervals of at least 1 minute). The average of the 3 blood pressure readings was recorded in the CRF. A pulse oximeter was used to measure peripheral capillary oxygen saturation (SpO2) continuously from pre-dose until 4-hours post-dose. A pulse oximeter was clipped onto the finger or foot of the subject, and light will be sent through the finger or foot and measured on the other side.
In these tables, baseline value is defined as the last non-missing value prior to study drug administration.

CN[C@@]1(c2ccccc2Cl)CCCCC1=O.Cl [R(−)-ketamine, (2R)-2-(2-chlorophenyl)-2-(methylamino)cyclohexan-1-one]
Respiratory Rate, Max (Day 1, 15 minutes): 18 breaths/minute
Respiratory Rate, Mean (Day 1, 15 minutes): 15.5 breaths/minute
Respiratory Rate, Median (Day 1, 15 minutes): 15.0 breaths/minute
Respiratory Rate, Min (Day 1, 15 minutes): 14 breaths/minute
Respiratory Rate, Max (Day 1, 40 minutes): 23 breaths/minute
Respiratory Rate, Mean (Day 1, 40 minutes): 15.9 breaths/minute
Respiratory Rate, Median (Day 1, 40 minutes): 16.0 breaths/minute
Respiratory Rate, Min (Day 1, 40 minutes): 12 breaths/minute
Respiratory Rate, Max (Day 1, 60 minutes): 16 breaths/minute
Respiratory Rate, Mean (Day 1, 60 minutes): 15.2 breaths/minute
Respiratory Rate, Median (Day 1, 60 minutes): 16.0 breaths/minute
Respiratory Rate, Min (Day 1, 60 minutes): 12 breaths/minute
Respiratory Rate, Max (Day 1, 2 hours): 19 breaths/minute
Respiratory Rate, Mean (Day 1, 2 hours): 15.5 breaths/minute
Respiratory Rate, Median (Day 1, 2 hours): 16.0 breaths/minute
Respiratory Rate, Min (Day 1, 2 hours): 11 breaths/minute
Respiratory Rate, Max (Day 1, 4 hours): 20 breaths/minute
Respiratory Rate, Mean (Day 1, 4 hours): 15.9 breaths/minute
Respiratory Rate, Median (Day 1, 4 hours): 16.0 breaths/minute
Respiratory Rate, Min (Day 1, 4 hours): 12 breaths/minute
Respiratory Rate, Max (Day 1, 6 hours): 20 breaths/minute
Respiratory Rate, Mean (Day 1, 6 hours): 15.7 breaths/minute
Respiratory Rate, Median (Day 1, 6 hours): 16.0 breaths/minute
Respiratory Rate, Min (Day 1, 6 hours): 12 breaths/minute
Respiratory Rate, Max (Day 2 - Discharge): 20 breaths/minute
Respiratory Rate, Mean (Day 2 - Discharge): 15.9 breaths/minute
Respiratory Rate, Median (Day 2 - Discharge): 16.0 breaths/minute
Respiratory Rate, Min (Day 2 - Discharge): 12 breaths/minute
Respiratory Rate, Max (Day 8): 18 breaths/minute
Respiratory Rate, Mean (Day 8): 15.7 breaths/minute
Respiratory Rate, Median (Day 8): 16.0 breaths/minute
Respiratory Rate, Min (Day 8): 12 breaths/minute
Respiratory Rate, Max (Day 15): 20 breaths/minute
Respiratory Rate, Mean (Day 15): 15.8 breaths/minute
Respiratory Rate, Median (Day 15): 16.0 breaths/minute
Respiratory Rate, Min (Day 15): 12 breaths/minute
Respiratory Rate, Change from Baseline, Max (to Day 1, 15 minutes): 2 breaths/minute
Respiratory Rate, Change from Baseline, Mean (to Day 1, 15 minutes): −0.6 breaths/minute
Respiratory Rate, Change from Baseline, Median (to Day 1, 15 minutes): −1.0 breaths/minute
Respiratory Rate, Change from Baseline, Min (to Day 1, 15 minutes): −4 breaths/minute
Respiratory Rate, Change from Baseline, Max (to Day 1, 40 minutes): 4 breaths/minute
Respiratory Rate, Change from Baseline, Mean (to Day 1, 40 minutes): −0.0 breaths/minute
Respiratory Rate, Change from Baseline, Median (to Day 1, 40 minutes): 0.0 breaths/minute
Respiratory Rate, Change from Baseline, Min (to Day 1, 40 minutes): −4 breaths/minute
Respiratory Rate, Change from Baseline, Max (to Day 1, 60 minutes): 1 breaths/minute
Respiratory Rate, Change from Baseline, Mean (to Day 1, 60 minutes): −0.8 breaths/minute
Respiratory Rate, Change from Baseline, Median (to Day 1, 60 minutes): −1.0 breaths/minute
Respiratory Rate, Change from Baseline, Min (to Day 1, 60 minutes): −4 breaths/minute
Respiratory Rate, Change from Baseline, Max (to Day 1, 2 hours): 2 breaths/minute
Respiratory Rate, Change from Baseline, Mean (to Day 1, 2 hours): −0.5 breaths/minute
Respiratory Rate, Change from Baseline, Median (to Day 1, 2 hours): 0.0 breaths/minute
Respiratory Rate, Change from Baseline, Min (to Day 1, 2 hours): −4 breaths/minute
Respiratory Rate, Change from Baseline, Max (to Day 1, 4 hours): 3 breaths/minute
Respiratory Rate, Change from Baseline, Mean (to Day 1, 4 hours): −0.1 breaths/minute
Respiratory Rate, Change from Baseline, Median (to Day 1, 4 hours): 0.0 breaths/minute
Respiratory Rate, Change from Baseline, Min (to Day 1, 4 hours): −4 breaths/minute
Respiratory Rate, Change from Baseline, Max (to Day 1, 6 hours): 6 breaths/minute
Respiratory Rate, Change from Baseline, Mean (to Day 1, 6 hours): −0.2 breaths/minute
Respiratory Rate, Change from Baseline, Median (to Day 1, 6 hours): 0.0 breaths/minute
Respiratory Rate, Change from Baseline, Min (to Day 1, 6 hours): −8 breaths/minute
Respiratory Rate, Change from Baseline, Max (to Day 2 - Discharge): 4 breaths/minute
Respiratory Rate, Change from Baseline, Mean (to Day 2 - Discharge): −0.0 breaths/minute
Respiratory Rate, Change from Baseline, Median (to Day 2 - Discharge): 0.0 breaths/minute
Respiratory Rate, Change from Baseline, Min (to Day 2 - Discharge): −4 breaths/minute
Respiratory Rate, Change from Baseline, Max (to Day 8): 4 breaths/minute
Respiratory Rate, Change from Baseline, Mean (to Day 8): −0.2 breaths/minute
Respiratory Rate, Change from Baseline, Median (to Day 8): 0.0 breaths/minute
Respiratory Rate, Change from Baseline, Min (to Day 8): −6 breaths/minute
Respiratory Rate, Change from Baseline, Max (to Day 15): 6 breaths/minute
Respiratory Rate, Change from Baseline, Mean (to Day 15): −0.1 breaths/minute
Respiratory Rate, Change from Baseline, Median (to Day 15): 0.0 breaths/minute
Respiratory Rate, Change from Baseline, Min (to Day 15): −3 breaths/minute
